pEC50, pIC50: −log10 of the molar value.
Tests used:
[1] = tested on: Human immunodeficiency virus 1; test: Antiviral activity against wild type HIV1 3B infected in human MT4 cells assessed as inhibition of virus-induced cytopathic effect after 5 days by MTT assay; format: functional, organism-based; conditions: Human immunodeficiency virus 1, 3B, MT4, 120 h
[2] = tested on: Human immunodeficiency virus 2; test: Antiviral activity against HIV2 ROD infected in human MT4 cells assessed as inhibition of virus-induced cytopathic effect after 5 days by MTT assay; format: functional, organism-based; conditions: Human immunodeficiency virus 2, ISOLATE ROD, MT4, 120 h
[3] = Cytotoxicity against human MT4 cells assessed as reduction in cell viability after 5 days by MTT assay; format: cell-based
[4] = Selectivity index, ratio of CC50 for human MT4 cells to EC50 for wild type HIV1 3B infected in human MT4 cells; format: toxicity, cell-based; conditions: MT4 cells infected with wild type HIV1 3B, read-out: Ratio CC50/EC50
[5] = tested on: Human immunodeficiency virus 1; test: Antiviral activity against HIV1 3B harboring reverse transcriptase L100I mutant infected in human MT4 cells assessed as inhibition of virus-induced cytopathic effect after 5 days by MTT assay; format: functional, organism-based; conditions: Human immunodeficiency virus 1, 3B, MT4, 120 h
[6] = tested on: Human immunodeficiency virus 1; test: Antiviral activity against HIV1 3B harboring reverse transcriptase K103N mutant infected in human MT4 cells assessed as inhibition of virus-induced cytopathic effect after 5 days by MTT assay; format: functional, organism-based; conditions: Human immunodeficiency virus 1, 3B, MT4, 120 h
[7] = tested on: Human immunodeficiency virus 1; test: Antiviral activity against HIV1 3B harboring reverse transcriptase Y181C mutant infected in human MT4 cells assessed as inhibition of virus-induced cytopathic effect after 5 days by MTT assay; format: functional, organism-based; conditions: Human immunodeficiency virus 1, 3B, MT4, 120 h
[8] = tested on: Human immunodeficiency virus 1; test: Antiviral activity against HIV1 3B harboring reverse transcriptase Y188L mutant infected in human MT4 cells assessed as inhibition of virus-induced cytopathic effect after 5 days by MTT assay; format: functional, organism-based; conditions: Human immunodeficiency virus 1, 3B, MT4, 120 h
[9] = tested on: Human immunodeficiency virus 1; test: Antiviral activity against HIV1 3B harboring reverse transcriptase E138K mutant infected in human MT4 cells assessed as inhibition of virus-induced cytopathic effect after 5 days by MTT assay; format: functional, organism-based; conditions: Human immunodeficiency virus 1, 3B, MT4, 120 h
[10] = tested on: Human immunodeficiency virus 1; test: Antiviral activity against HIV1 3B harboring reverse transcriptase F227L/V106A double mutant infected in human MT4 cells assessed as inhibition of virus-induced cytopathic effect after 5 days by MTT assay; format: functional, organism-based; conditions: Human immunodeficiency virus 1, 3B, MT4, 120 h
[11] = tested on: Human immunodeficiency virus 1; test: Antiviral activity against HIV1 3B harboring reverse transcriptase RES056 double mutant infected in human MT4 cells assessed as inhibition of virus-induced cytopathic effect after 5 days by MTT assay; format: functional, organism-based; conditions: Human immunodeficiency virus 1, 3B, MT4, 120 h
[12] = target: Human immunodeficiency virus type 1 reverse transcriptase (Human immunodeficiency virus 1, UniProt Q72547); test: Inhibition of recombinant wild type HIV1 reverse transcriptase using DIG-labeled dUTP/biotin-labeled dUTP and dTTP as template and viral nucleotides assessed as decrease in biotin-dUTP incorporation after 1 hr by ELISA

Row | SMILES | pEC50 [1] | pEC50 [2] | CC50 at 120 h [3] [µM] | selectivity ratio [4] | pEC50 [5] | pEC50 [6] | pEC50 [7] | pEC50 [8] | pEC50 [9] | pEC50 [10] | pEC50 [11] | pIC50 [12]
1 | CC(=O)Nc1ccc(S(=O)(=O)NC2CCC(Nc3nc(Oc4c(C)cc(C#N)cc4C)c4sccc4n3)CC2)cc1 (stereo not given) | 8.00 | < 5.43 | 3.73 | 340 | 6.25 | 7.49 | 6.29 | 6.04 | 7.46 | 5.92 | < 5.43 | 5.98
2 | Cc1cc(C#N)cc(C)c1Oc1nc(NC2CCC(NC(=O)c3ccc(C#N)cc3)CC2)nc2ccsc12 (stereo not given) | 6.86 | < 5.58 | 2.62 | 19 | < 5.58 | ≤ 5.84 | < 5.58 | < 5.58 | 6.13 | < 5.58 | < 5.58 | –
3 | Cc1cc(C#N)cc(C)c1Oc1nc(NC2CCC(NS(=O)(=O)c3ccc(Br)cc3)CC2)nc2ccsc12 (stereo not given) | 7.60 | < 5.23 | 5.86 | 231 | 6.08 | 6.88 | 6.07 | 5.65 | 6.90 | ≤ 5.21 | 5.23 | –
4 | Cc1cc(C#N)cc(C)c1Oc1nc(NC2CCC(NC(=O)c3ccc(Br)cc3)CC2)nc2ccsc12 (stereo not given) | 7.52 | < 5.55 | 2.85 | 93 | < 5.55 | 6.28 | < 5.55 | < 5.55 | 6.43 | < 5.55 | < 5.55 | –
5 | Cc1cc(C#N)cc(C)c1Oc1nc(NC2CCC(NS(=O)(=O)c3cccc(C(F)(F)F)c3)CC2)nc2ccsc12 (stereo not given) | 7.07 | < 5.18 | 6.68 | 78 | ≤ 5.39 | 6.24 | ≤ 5.36 | < 5.17 | 6.19 | < 5.17 | < 5.17 | –
6 | Cc1cc(C#N)cc(C)c1Oc1nc(NC2CCC(NS(=O)(=O)c3ccc(F)cc3)CC2)nc2ccsc12 (stereo not given) | 8.04 | < 5.45 | 3.53 | 383 | 6.39 | 6.99 | 6.33 | < 5.45 | 7.12 | < 5.45 | < 5.45 | –
7 | Cc1cc(C#N)cc(C)c1Oc1nc(NC2CCC(NC(=O)c3ccccc3)CC2)nc2ccsc12 (stereo not given) | 7.89 | < 5.41 | 3.93 | 294 | < 5.41 | 6.56 | ≤ 5.82 | < 5.41 | 6.74 | < 5.41 | < 5.41 | –
8 | Cc1cc(C#N)cc(C)c1Oc1nc(NC2CCC(NC(=O)c3cccc(C(F)(F)F)c3)CC2)nc2ccsc12 (stereo not given) | 6.71 | < 5.49 | 3.24 | 17 | < 5.49 | < 5.49 | < 5.49 | < 5.49 | ≤ 5.88 | < 5.49 | < 5.49 | –
9 | Cc1cc(C#N)cc(C)c1Oc1nc(NC2CCC(NS(=O)(=O)c3ccc(C#N)cc3)CC2)nc2ccsc12 (stereo not given) | 8.15 | < 5.03 | 9.29 | 1310 | 6.37 | 7.15 | 6.37 | 6.17 | 7.35 | 5.45 | < 5.03 | 5.94
10 | Cc1cc(C#N)cc(C)c1Oc1nc(NC2CCC(NC(=O)c3ccc(F)cc3)CC2)nc2ccsc12 (stereo not given) | 7.59 | < 5.50 | 3.18 | 121 | < 5.50 | 6.32 | < 5.50 | < 5.50 | 6.64 | < 5.50 | < 5.50 | –
11 | Cc1cc(C#N)cc(C)c1Oc1nc(Nc2ccc(C#N)cc2)nc(N)c1Br [ETRAVIRINE] | 8.55 | – | 2.18 | – | 8.01 | 8.47 | 7.72 | 7.70 | – | 7.64 | 7.59 | –
12 | Cc1cn([C@H]2C[C@H](N=[N+]=[N-])[C@@H](CO)O2)c(=O)[nH]c1=O [ZIDOVUDINE] | – | 8.10 | > 7.48 | > 664 | 8.27 | 8.11 | 8.20 | 8.10 | 7.77 | 8.28 | 7.96 | –
